Assay results from patent publication US10688194B2, “Cell penetrating peptides for intracellular delivery of molecules” (AADIGEN, LLC, priority 2012, dated 2020).
Read-outs that look alike come from different tables or passages of the source. Ends that are not written are not given here.

Columns and labels:
HIV-1-LAI = assay type: cell-based; conditions: for anti viral activity: scrambled peptides; for IC50: -LAI; for fold higher antiviral activity than AZT: associated to the carrier peptide VEPEP-3
Protocol: Adherent HS68 fibroblasts, HeLa, PC3, MCF-7, SCK3-Her2, PBMC cell lines (from American Type Culture Collection (ATCC)) were cultured in Dulbecco's Modified Eagle's Medium supplemented with 2 mM glutamine, 1% antibiotics (streptomycin 10,000 μg/ml, penicillin, 10,000 IU/ml) and 10% (w/v) foetal calf serum (FCS), at 37° C. in a humidified atmosphere containing 5% CO2. Stock solutions of VEPEP-3/peptide particles were prepared by complexing 1 μM peptide with VEPEP-3 peptides at a molar ratio of 1/20 for 30 min at 37° C. Lower concentrations of VEPEP-3-carrier/peptide (from 500 nM to […]) were obtained by serial dilution of the stock complexes in PBS, in order to preserve the same VEPEP-3-carrier/peptide ratio. 150,000 cells seeded in a 35 mm dish the day prior transfection, were grown to 60% confluence and overlaid with 200 μl of preformed complexes, incubated for 3-5 min, then 400 μl of DMEM were added. After 30 min. incubation at 37° C., 1 ml of fresh DMEM containing 16% foetal calf serum (FCS) was added in order to reach a final FCS concentration of 10%, without removing the overlay of VEPEP-3/peptide complexes. Cells were returned to the incubator for 24 hrs. For cdk4 and CDK2 derived peptides cell proliferation was monitored after 24 and 48 hrs. For peptide-targeting integrase, HIV proliferation was analyzed on activated PBMC cells after 3 and 5 days. Data reported are an average of 3 or 4 distinct experiments.
The anti-HIV activities of the peptides (PC4D, PC6D & PC4S) and VEPEP-3/peptides were assayed according to previously described method (Roisin et al, 2004). Phytohemagglutinin-P (PHA-P)-activated peripheral blood mononuclear cells (PBMC) treated by increasing concentrations of peptide (from 100 to 0.1 nM), one hour later, were infected with hundred 50% tissue culture infectious doses (TCID50) per 100,000 cells of the HIV-1-LAI or different resistant strains (Barre-Sinoussi et al, 1983). Viruses were amplified in vitro on PHA-P-activated PBMC. Viral stock was titrated using PHA-P-activated PBMC, and 50% TCID50 were calculated using Karber's formula (Karber 1931). Samples were maintained throughout the culture, and cell supernatants were collected at day 7 post-infection and stored at −20 C. Viral replication was measured by quantifying RT activity in cell culture supernatants. In parallel, cytotoxicity of the compounds was evaluated in uninfected PHA-P-activated PBMC by colorimetric 3-(4-5 dimethylthiazol-2-yl)2,5 diphenyl tetrazolium bromite (MTT) assay on day 7 (Mossmann 1983). Experiments were performed in triplicate and repeated with another blood donor. Data analyses were performed using SoftMax® Pro 4.6 microcomputer software: percent of inhibition of RT activity or of cell viability were plotted vs. concentration and fitted with quadratic curves; 50% effective doses (ED50) and cytotoxic doses (CD50) were calculated.

Peptide (C4 and C2) = experiment: Fluorescence titration, VEPEP-3/cargo binding: peptide
Protocol: (§1) Fluorescence experiments were performed on a PTI spectrofluorimeter at 25° C. in a NaCl 154 mM buffer. Intrinsic Trp-fluorescence of VEPEP-3 was excited at 290 nm and emission spectrum was recorded between 310 and 400 nm, with a spectral band-pass of 2 and 8 nm for excitation and emission, respectively. FITC-fluorescence of labelled-peptide was excited at 492 nm and emission recorded between 500 and 580 nm. For VEPEP-3/peptide interaction, 0.5 μM of FITC-labelled peptide was titrated by increasing concentrations of VEPEP-3. All measurements were corrected for the dilution and curve fitting were performed by using Grafit software (Erithacus).
(§2) VEPEP-3 peptide form stable complexes with peptides and proteins. The binding of cargos to VEPEP-3 was monitored by fluorescence spectroscopy using the […] intrinsic Trp groups of VEPEP-3 (3 to 5 Trp-residues) and extrinsic fluorescently labelled cargoes (using Cy3, Cy5 or FITC). Curve fitting reveal that VEPEP-3 strongly binds the different cargoes with dissociation constant in the nanomolar range (examples with VEPEP-3a, VEPEP-3C, and VEPEP-3g and three different cargoes are reported in FIGS. 1A-1C, all the data are reported in Table 1).

Cyclic peptide (PC4) = experiment: Fluorescence titration, VEPEP-3/cargo binding: cyclic peptide; conditions: cargo: Cyclic peptide (PC4)
Protocol: as §1, §2

protein (GFP & Nanobody) = experiment: Fluorescence titration, VEPEP-3/cargo binding: protein; conditions: cargo: protein (GFP & Nanobody)
Protocol: as §1, §2

[1] = Fluorescence titration, VEPEP-3/cargo binding: small hydrophobic molecule; conditions: cargo: Doxorubicine; for Kd: read-out: Kd, SHM
Protocol: as §1
(§3) VEPEP-3 peptides also form stable particles with small aromatic molecules including Daunomycin, Paclitaxel, doxorubicin, porphyrin and charged molecules including nucleotide, nucleoside and peptide-analog of nucleic acids or fluorescent dyes (FIGS. 1A-1C). The dissociation constant for small hydrophobic molecule ranges between 0.05 to 2 μM, depending on the nature of the dyes and of the peptides.

PNA (15 mer-PNA) = experiment: Fluorescence titration, VEPEP-3/cargo binding: PNA; conditions: cargo: 15 mer-PNA
Protocol: as §1, §3

HeLa and U2OS cells = experiment: Toxicity of VEPEP-3 particles, MTT assay and cyclophilin mRNA level; conditions: complexed with short peptide and PNA at ratio 1/20
Protocol: Toxicity of VEPEP-3/peptide or VEPEP-3/protein complexes was investigated on Hela and HS-68 cell lines. 30,000 cells seeded in 24-well plated the day prior transfection, were incubated with increasing concentrations of peptide or protein complexed with VEPEP-3 at a 20/1 molar ratio ranging from 1 to 5 μM ([…]), for 30 min prior to addition of medium to reach a final 10% concentration of FCS. Cytotoxic response was measured 12 hr or 24 hr later by monitoring the housekeeping gene cyclophilin mRNA level (Quantigen, Panomic Inc.) and by colorimetric MTT assay (Sigma, Germany), respectively. For MTT assay, cell culture medium was removed and replaced with PBS containing 2.5 mg/ml of MTT for 4 hr. Results correspond to the average of 3 separate experiments.

MCF7 = experiment: Inhibition of cancer cell proliferation by delivered small molecule drugs; assay type: cell-based; conditions: Homo sapiens
Protocol: (§4) Adherent HS68 fibroblasts, HeLa, PC3, MCF-7, SCK3-Her2, PBMC cell lines (from American Type Culture Collection (ATCC)) were cultured in Dulbecco's Modified Eagle's Medium supplemented with 2 mM glutamine, 1% antibiotics (streptomycin 10,000 μg/ml, penicillin, 10,000 IU/ml) and 10% (w/v) foetal calf serum (FCS), at 37° C. in a humidified atmosphere containing 5% CO2. […] 150,000 cells seeded in a 35 mm dish the day prior transfection, were grown to 60% confluence and overlaid with 200 μl of preformed complexes, incubated for 3-5 min, then 400 μl of DMEM were added. After 30 min. incubation at 37° C., 1 ml of fresh DMEM containing 16% foetal calf serum (FCS) was added in order to reach a final FCS concentration of 10%, without removing the overlay of VEPEP-3/peptide complexes. Cells were returned to the incubator for 24 hrs. […] Data reported are an average of 3 or 4 distinct experiments.

SKB3 = experiment: as above; assay type: cell-based
Protocol: as §4

[2] = drug complexed with VEPEP-3a 1/20, read-out: VEPEP-3a 1/20 IC50
[3] = drug complexed with VEPEP-3g 1/20, read-out: VEPEP-3g 1/20 IC50
[4] = SKB3, drug complexed with VEPEP-3a 1/20, read-out: VEPEP-3a 1/20 IC50
[5] = SKB3, drug complexed with VEPEP-3g 1/20, read-out: VEPEP-3g 1/20 IC50
[6] = SKB3, free drug, read-out: Free drug IC50

| Molecule | Binding, peptide (Peptide (C4 and C2)) | Kd (Peptide (C4 and C2)) [nM] | Binding, Cyclic peptide (Cyclic peptide (PC4)) | Binding, Protein (protein (GFP & Nanobody)) | Kd (protein (GFP & Nanobody)) [nM] | Binding, SHM [1] | Kd [1] [nM] | Binding, PNA (PNA (15 mer-PNA)) | toxicity (HeLa and U2OS cells; levels up to 200 nM) | toxicity (HeLa and U2OS cells; maximum concentration of 1 μM) | further results |
| --- | --- | --- | --- | --- | --- | --- | --- | --- | --- | --- | --- |
| KAETWAET (HELM PEPTIDE1{[ac].K.A.E.T.W.A.E.T.[SCCN[*:1]]}$$$$V2.0; SMILES CC(=O)N[C@@H](CCCCN)C(=O)N[C@@H](C)C(=O)N[C@@H](CCC(=O)O)C(=O)N[C@H](C(=O)N[C@@H](Cc1c[nH]c2ccccc12)C(=O)N[C@@H](C)C(=O)N[C@@H](CCC(=O)O)C(=O)N[C@H](C(=O)NCCS)[C@@H](C)O)[C@@H](C)O) [PC6S] |  |  |  |  |  |  |  |  |  |  | anti viral activity (HIV-1-LAI): do not show any anti viral activity |
| X1LWWRRWWSRWWPRWRR [VEPEP-3f] | yes | 10 to 20 | yes | Yes | 20 to 100 | Yes | 20 | Yes | No toxicity | mild toxicity |  |
| X1RWYEKWYTEFPRRRR [VEPEP-3d] | yes | 10 to 20 | yes | Yes | 100 | Yes | 100 | Yes | No toxicity | mild toxicity | Kd (PNA (15 mer-PNA)): 100 nM |
| RWTEWEWW [PC4D, RWTEWEWW] |  |  |  |  |  |  |  |  |  |  | IC50 (HIV-1-LAI): 0.12 ± 0.05 nM; fold higher antiviral activity than AZT (HIV-1-LAI): 15 fold |
| TWFTEWFT (HELM PEPTIDE1{[ac].T.W.F.T.E.W.F.T.[SCCN[*:1]]}$$$$V2.0; SMILES CC(=O)N[C@H](C(=O)N[C@@H](Cc1c[nH]c2ccccc12)C(=O)N[C@@H](Cc1ccccc1)C(=O)N[C@H](C(=O)N[C@@H](CCC(=O)O)C(=O)N[C@@H](Cc1c[nH]c2ccccc12)C(=O)N[C@@H](Cc1ccccc1)C(=O)N[C@H](C(=O)NCCS)[C@@H](C)O)[C@@H](C)O)[C@@H](C)O) [PC4S] |  |  |  |  |  |  |  |  |  |  | anti viral activity (HIV-1-LAI): do not show any anti viral activity |
| KWETWWET [PC6D, KWETWWET] |  |  |  |  |  |  |  |  |  |  | IC50 (HIV-1-LAI): 0.09 ± 0.05 nM; fold higher antiviral activity than AZT (HIV-1-LAI): 15 fold |
| X1RWWEKWWTRWPRKRK [VEPEP-3c] | yes | 10 to 20 | yes | Yes | 200 | Yes | 200 | Yes | No toxicity | mild toxicity | Kd (PNA (15 mer-PNA)): 200 nM |
| X1LWWSRWWRSWFRLWFR [VEPEP-3g] | yes | 10 to 20 | yes | Yes | 20 to 100 | Yes | 20 | Yes | No toxicity | mild toxicity |  |
| X1RWWRLWWRSWFRLWRR [VEPEP-3e] | yes | 10 to 20 | yes | Yes | 20 to 100 | Yes | 20 | Yes | No toxicity | mild toxicity |  |
| COc1cccc2c1C(=O)c1c(O)c3c(c(O)c1C2=O)C[C@@](O)(C(=O)CO)C[C@@H]3O[C@H]1C[C@H](N)[C@H](O)[C@H](C)O1 [Doxo, doxorubicin] |  |  |  |  |  |  |  |  |  |  | IC50 (MCF7; [2]): 200 nM; IC50 (MCF7; drug complexed with VEPEP-3c 1/20, read-out: VEPEP-3c 1/20 IC50): 500 nM; IC50 (MCF7; [3]): 200 nM; IC50 (MCF7; free drug, read-out: Free drug IC50): 7000 nM; IC50 (SKB3; [4]): 300 nM; IC50 (SKB3; SKB3, drug complexed with VEPEP-3c 1/20, read-out: VEPEP-3c 1/20 IC50): 400 nM; IC50 (SKB3; [5]): 200 nM; IC50 (SKB3; [6]): 10000 nM; fold more efficient when complexed with VEPEP-3 (SKB3; complexed versus free): 25 fold; IC50 (SKB3; text of b118, cell line not stated, values match SKB3 line of Table 4, read-out: IC50, proliferation of cancer cells): 10000 nM |
| X1KWWERWWREWPRKRK [VEPEP-3b] | yes | 10 to 20 | yes | Yes | 500 | Yes | 500 | Yes | No toxicity | mild toxicity | Kd (PNA (15 mer-PNA)): 200 nM |
| CC(=O)O[C@H]1C(=O)[C@@]2(C)[C@H]([C@H](OC(=O)c3ccccc3)[C@]3(O)C[C@H](OC(=O)[C@H](O)[C@@H](NC(=O)c4ccccc4)c4ccccc4)C(C)=C1C3(C)C)[C@]1(OC(C)=O)CO[C@@H]1C[C@@H]2O [Taxol, taxol] |  |  |  |  |  |  |  |  |  |  | IC50 (MCF7; [2]): 200 nM; IC50 (MCF7; [3]): 700 nM; IC50 (SKB3; [4]): 500 nM; IC50 (SKB3; [5]): 800 nM; IC50 (SKB3; [6]): 9000 nM |
